Results as given in ChEMBL document CHEMBL6134791, “Stereochemical optimization of N,2-substituted cycloalkylamines as norepinephrine reuptake inhibitors” (RSC Med Chem, 2024).

Target: Sodium-dependent noradrenaline transporter (Homo sapiens, UniProt P23975)
Assay: Inhibition of NET (unknown origin) expressed in Jump In T-REx HEK293 cells assessed as decrease in norepinephrine-induced cellular response preincubated for 1 hr followed by norepinephrine stimulation measured for 30 mins by TRACT assay
Format: cell-based

Sequence of Sodium-dependent noradrenaline transporter (P23975 whole entry): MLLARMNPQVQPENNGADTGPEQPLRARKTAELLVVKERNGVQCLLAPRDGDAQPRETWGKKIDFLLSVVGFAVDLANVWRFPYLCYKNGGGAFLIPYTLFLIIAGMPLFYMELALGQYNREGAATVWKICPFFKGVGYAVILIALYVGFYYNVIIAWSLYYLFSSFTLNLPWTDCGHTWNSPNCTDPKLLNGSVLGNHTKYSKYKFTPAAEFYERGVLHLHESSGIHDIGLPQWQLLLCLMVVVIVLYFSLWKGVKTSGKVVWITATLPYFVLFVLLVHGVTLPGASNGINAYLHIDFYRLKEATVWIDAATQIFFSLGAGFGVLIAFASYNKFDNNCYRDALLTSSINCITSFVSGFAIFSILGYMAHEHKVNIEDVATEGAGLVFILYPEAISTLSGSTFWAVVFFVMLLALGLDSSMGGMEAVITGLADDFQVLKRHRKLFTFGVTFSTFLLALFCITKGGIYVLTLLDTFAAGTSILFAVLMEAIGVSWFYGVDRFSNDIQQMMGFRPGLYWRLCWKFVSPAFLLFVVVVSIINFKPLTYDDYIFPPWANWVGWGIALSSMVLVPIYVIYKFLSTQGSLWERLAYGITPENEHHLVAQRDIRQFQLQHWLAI

Going from COC(=O)CCCNC1CCCC1c1ccc(Cl)c(Cl)c1 (configuration not stated) to CCCCNC1CCCC1c1ccc(Cl)c(Cl)c1 (configuration not stated), the IC50 rises from 158 nM to 251 nM (1.6-fold). The first is the more potent here.

First: OCCNC1CCCC1c1ccc(Cl)c(Cl)c1 (configuration not stated)
Second: OCCCCNC1CCCCC1c1ccc(Cl)c(Cl)c1 (configuration not stated)
The IC50 of the first is 6.3-fold lower: 79.4 nM for the first, 501 nM for the second. The first is the more potent here.

First: CNCCCCNC1CCCC1c1ccc(Cl)c(Cl)c1 (configuration not stated)
Second: COCCCCNC1CCCC1c1ccc(Cl)c(Cl)c1 (configuration not stated)
The IC50 of the first is 3.2-fold higher: 316 nM for the first, 100 nM for the second.

Clc1ccc(C2CCCC2NCc2ccccc2)cc1Cl (configuration not stated) showed an IC50 of 631 nM.
